# Test results published in patent US8129425B2, “Small organic molecule regulators of cell proliferation” (Curis, Inc., priority 2000, dated 2012).
# pEC50: −log10 of the molar value.
# Key:
# SVZ precursor cells = experiment: SVZ precursor cell proliferation (BrdU) after direct brain administration in adult rats; assay type: in vivo, rat; conditions: 200 μM in pump into brain ventricles, 0.5 μl/hr for 6 days; p<0.05
# Protocol: Hh agonist was administered directly into the brain ventricles of male SD rats via a cannula attached to an osmotic Alzet pump. The pumps were filled with either vehicle (5% 2-hydroxypropyl-B-cyclodextrin, 4.35% Mannitol, 0.2% DMSO) or Hh agonist (U″ ranging from 10-600 μM) and the pump released compound into the ventricles at constant rate of 0.5 μl/hr for 6 days. After 6 days of pretreatment with compound, animals were injected with Bromodeoxyuridine (BrdU, 50 mg/kg, ip) to label dividing cells. Two hours after BrdU treatment, rats were euthanized and perfused with fixative. Brains were collected and processed for BrdU immunohistochemistry. The number of BrdU-immunoreactive (BrdU-IR) cells was then counted in the SVZ on both the sides of the brain with the cannula (ipsilateral) and without (contralateral).
# [1] = test system: malonate induced striatal lesion; experiment: Rat malonate lesion model of Huntington's disease; assay type: in vivo; conditions: 300 μM in Alzet pump into brain ventricles, 1 μl/hr for 6 days pretreatment; vs vehicle, p=0.0159
# Protocol: Malonate is a mitochondrial toxin and defects in mitochondrial energy metabolism are thought to play a role in the pathology of neurodegenerative diseases such as HD. When malonate is injected into the rat striatum a lesion forms in this brain region. The experiments described below tested whether the Hh agonist would reduce the size of the malonate induced striatal lesion. Hh agonist was administered directly into the brain ventricles of male SD rats via a cannula attached to an osmotic Alzet pump. […] After 6 days of pretreatment with compound, malonate was injected directly into the brain striatum and the Alzet pump was removed. Four days later rats were euthanized and the brains were sliced into 2 mm slabs. The slices were placed in a 2% solution (TTC) that stains living tissue red and the striatal infarct white. The size of the infarct (% infarct) was measured using image analysis software and the data were analyzed by one-way ANOVA followed by appropriate post-hoc tests (p<0.05).
# [2] = test system: hedgehog-responsive Gli-Luc reporter-construct; experiment: Gli-Luc hedgehog pathway reporter assay in [10T1/2(s12)] cells; assay type: cell-based, murine; conditions: Table 1
# Protocol: To measure the hedgehog agonist activity of compounds, we used [10T1/2(s12)] cells containing the hedgehog-responsive Gli-Luc reporter-construct. In each MTP (MicroTiter Plate; 96-well plate), 10,000-20,000 cells were plated per well, in full media (10% FBS). After about 24-48 hr, plates were switched to low-serum media (=0.5%. FBS). Subsequently, a test compound was added at 1-5 μM in the presence or absence of octyl-hedgehog (see below). After another 24 hr, the media from the MTPs was discarded and replaced with luciferase assay-mix, containing lysis-buffer with luciferase substrate. The plates were incubated at RT for about 15-30 min and read in a luminometer.
# Plates were incubated for 48 hr before switching to low-serum. Compounds were screened at 1-2 μM in the presence of Hh protein (0.01 μg/ml; EC30=about 30% of max-induced activity).
# Plates were incubated for 24 hr before switching to low-serum. Compounds were screened at 5 μM without adding Hh protein.
# From Screen A, we identified hits identified in FIGS. 32 and 33. The 1,4-diaminocyclohexane subunit of the compounds of FIG. 32 which include this moiety have the two amino substituents disposed in a trans-relationship, e.g., both substituents equatorial on the cyclohexane subunit. These hits were confirmed in Screen B. The data shown in FIGS. 34a and 34b essentially involved dosing the two compounds in both assays (Gli-Luc & SV-Luc).
# The data from the Gli-Luc assay is converted to percent activity where full activity with Hh protein is set at 100% (FIG. 35; Table 1). […] Furthermore, the compounds show a more striking induction in the presence of hedgehog (EC50=0.2-0.3 μM, ECmax=70-90% of max induced activity with Hh protein), indicating a synergy between the compounds and Hh protein, consistent with the compounds serving as agonists for the hedgehog pathway.
structure (smiles),measurement,setting,value
CN[C@H]1CC[C@H](N(Cc2cccc(-c3ccncc3)c2)C(=O)c2sc3c(F)ccc(F)c3c2Cl)CC1 [U′′],number of BrdU-IR cells in SVZ,SVZ precursor cells,dramatically increased on both sides of the brain
same,size of malonate-induced infarct (% infarct),[1],reduced the size of the malonate-induced infarct
same,pEC50,[2],> 8.30
